According to ChEMBL document CHEMBL1201862, “PubChem BioAssay data set” (2004):
Calls of active or inactive are those of the source.

Experiments:
[1] = tested on: BJ; experiment: BJ-TERT fibroblast viability loss – cell-based, RAS-independent, luminescence, dose response (AID 1933); format: functional; details: Homo sapiens
[2] = tested on: Vero; experiment: cells; format: functional, cell-based; details: Chlorocebus sabaeus
[3] = DRD fibroblast viability loss – cell-based, non-viral oncogenic, luminescence, dose response (AID 1934); format: functional; details: Homo sapiens
[4] = tested on: Vero; experiment: cells; format: functional; details: Chlorocebus sabaeus
[5] = tested on: BJ; experiment: BJ-TERT-LT-ST fibroblast viability loss – cell-based, RAS-independent, luminescence, dose response (AID 1935); format: functional; details: Homo sapiens;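 further: BJ fibroblasts immortalized with TERT plus LT and ST oncogenes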
[6] = tested on: Vero; experiment: mammalian cell viability reduction – secondary assay, cytotoxicity control for West Nile virus antiviral project, dose response (AID 1650); format: functional; details: Chlorocebus sabaeus
[7] = tested on: BJ; experiment: cells; format: functional, cell-based; details: Homo sapiens
[8] = fluconazole-exposed Candida albicans growth modulators – fluorescence, retest, confirmation (AID 2467); format: functional, cell-based
[9] = NIH-3T3 fibroblast cytotoxicity, dose response, cytotoxicity control, cell-based, fluorescence, Alamar Blue, secondary assay (AID 2327); format: functional;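 further: NIH-3T3 mouse fibroblasts cultured with fluconazole at 8 µg/mL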
[10] = biological target: Albumin (Bos taurus, UniProt P02769); experiment: Counterscreen for inhibitors of T-cell receptor (TCR)-CD3 interaction: Fluorescence-based biochemical high throughput dose response assay to identify inhibitors of T-cell receptor (TCR)-CD3 interaction using a TAMRA-labeled BSA probe.; format: functional
Albumin, sequence (P02769 whole entry): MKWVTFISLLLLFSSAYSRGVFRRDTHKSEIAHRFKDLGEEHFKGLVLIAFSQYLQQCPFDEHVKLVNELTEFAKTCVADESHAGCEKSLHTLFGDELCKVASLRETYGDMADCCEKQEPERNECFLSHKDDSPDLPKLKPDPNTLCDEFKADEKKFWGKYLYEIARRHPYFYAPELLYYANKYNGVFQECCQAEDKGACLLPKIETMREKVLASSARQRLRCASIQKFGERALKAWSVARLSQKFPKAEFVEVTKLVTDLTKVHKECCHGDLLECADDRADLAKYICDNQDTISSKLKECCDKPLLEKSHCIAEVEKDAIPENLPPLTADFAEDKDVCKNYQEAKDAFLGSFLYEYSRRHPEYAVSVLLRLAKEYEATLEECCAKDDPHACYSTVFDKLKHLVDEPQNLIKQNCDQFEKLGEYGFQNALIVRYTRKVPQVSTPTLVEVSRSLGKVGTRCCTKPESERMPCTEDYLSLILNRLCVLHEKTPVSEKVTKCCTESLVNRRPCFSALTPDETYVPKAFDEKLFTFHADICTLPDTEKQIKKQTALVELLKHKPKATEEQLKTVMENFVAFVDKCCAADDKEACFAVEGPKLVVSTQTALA

[11] = tested on: HeLa; experiment: ATP-based viability loss in HeLa cells – cell-based, CellTiter-Glo luminescence, cherry-pick samples, cytotoxicity control for MITF activator project, dose response (AID 540259); format: functional; details: Homo sapiens
[12] = Luminescence Cell-Based Dose Retest to Confirm Inhibitors of Cancer Stem Cells. [Related pubchem assays (depositor defined):AID2717, AID2721]; format: functional; details: Homo sapiens
[13] = microbe, parasite or virus in culture; format: functional; details: Mycobacterium tuberculosis
[14] = biological target: T1, Ubiquitin-conjugating enzyme E2 N (Homo sapiens, UniProt P61088); format: functional;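 further: Dose-response confirmation in a TR-FRET assay detecting UBC13-driven polyubiquitin chain formation, inhibition measured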
T1 sequence (P61088 whole entry): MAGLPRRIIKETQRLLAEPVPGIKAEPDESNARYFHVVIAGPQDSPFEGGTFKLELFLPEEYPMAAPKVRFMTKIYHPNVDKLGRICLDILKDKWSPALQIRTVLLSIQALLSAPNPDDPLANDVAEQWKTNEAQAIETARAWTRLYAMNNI

[15] = biological target: Heat shock protein HSP 90-alpha (Homo sapiens, UniProt P07900); format: functional, organism-based
[16] = tested on: Streptococcus sp. 'group A'; experiment: Streptococcus pyogenes SK(-)GAS viability under kanamycin – luminescence, BacTiterGlo, confirmation, counter-screen for streptokinase expression inhibitor project, dose response (AID 1900); format: functional, organism-based
[17] = tested on: Streptococcus; experiment: GAS UMAA2166 growth inhibition – luminescence, BacTiterGlo, counter-screen for streptokinase expression inhibitor project, dose response (AID 1915); format: functional, organism-based;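 further: potency for reduction of bacterial viability or growth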
[18] = biological target: T2, Streptokinase A (Streptococcus pyogenes serotype M1, UniProt P10520); experiment: viability-normalized secreted streptokinase activity reduction – plasminogen activation absorbance, OD405, dose response (AID 1914); format: functional, Streptococcus pyogenes M1 GAS;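 further: secreted streptokinase activity via plasminogen activation per viability signal from cell pellet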
T2 sequence (P10520 whole entry): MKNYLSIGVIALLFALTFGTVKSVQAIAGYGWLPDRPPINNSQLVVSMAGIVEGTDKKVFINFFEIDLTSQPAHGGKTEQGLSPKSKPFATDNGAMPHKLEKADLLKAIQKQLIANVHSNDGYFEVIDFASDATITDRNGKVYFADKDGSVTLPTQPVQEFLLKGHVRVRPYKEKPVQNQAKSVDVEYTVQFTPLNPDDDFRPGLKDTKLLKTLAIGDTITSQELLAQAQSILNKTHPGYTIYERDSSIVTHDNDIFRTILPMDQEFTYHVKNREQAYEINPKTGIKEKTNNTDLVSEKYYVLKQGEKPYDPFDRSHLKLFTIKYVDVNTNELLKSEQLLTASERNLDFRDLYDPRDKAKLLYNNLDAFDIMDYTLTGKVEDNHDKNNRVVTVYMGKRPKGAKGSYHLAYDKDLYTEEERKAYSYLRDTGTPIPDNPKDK

[19] = NIH3T3 cell viability loss – ATP luminescence, mouse fibroblasts, counter-screen, dose response (AID 2010); format: functional, cell-based;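 further: cells exposed to compound for about 90 hours before reading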
[20] = cells; format: functional, cell-based
[21] = Trypanosoma cruzi growth suppression in host cells – NIH3T3 host cells, beta-gal luminescence, confirmation (AID 2044); format: functional, cell-based;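 further: intracellular parasites grown in NIH/3T3 mouse fibroblasts as host cells; luminescent beta-galactosidase reporter signal from transgenic T. cruzi replicating inside host cells; inhibitors lower the luminescence signal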
[22] = cells; format: functional, cell-based; remark: listed apart in the source
[23] = tested on: INS1; experiment: INS-1E survival protection against cytokine death – cell-based, luminescence, retest, dose response (AID 449756); format: functional; details: Rattus norvegicus;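 further: cell death triggered by IL-1 beta plus TNF-alpha plus IFN-gamma mixture; protective hits raise ATP signal compared with cytokine alone wells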
[24] = biological target: T3, Tyrosine-protein phosphatase non-receptor type 11 (Homo sapiens, UniProt Q06124); experiment: PTPN11 enzyme inhibitors – biochemical, selectivity assay for STEP inhibitor project, dose response (AID 602367); format: functional; details: read-out: IC50_Mean
T3 sequence (Q06124 whole entry): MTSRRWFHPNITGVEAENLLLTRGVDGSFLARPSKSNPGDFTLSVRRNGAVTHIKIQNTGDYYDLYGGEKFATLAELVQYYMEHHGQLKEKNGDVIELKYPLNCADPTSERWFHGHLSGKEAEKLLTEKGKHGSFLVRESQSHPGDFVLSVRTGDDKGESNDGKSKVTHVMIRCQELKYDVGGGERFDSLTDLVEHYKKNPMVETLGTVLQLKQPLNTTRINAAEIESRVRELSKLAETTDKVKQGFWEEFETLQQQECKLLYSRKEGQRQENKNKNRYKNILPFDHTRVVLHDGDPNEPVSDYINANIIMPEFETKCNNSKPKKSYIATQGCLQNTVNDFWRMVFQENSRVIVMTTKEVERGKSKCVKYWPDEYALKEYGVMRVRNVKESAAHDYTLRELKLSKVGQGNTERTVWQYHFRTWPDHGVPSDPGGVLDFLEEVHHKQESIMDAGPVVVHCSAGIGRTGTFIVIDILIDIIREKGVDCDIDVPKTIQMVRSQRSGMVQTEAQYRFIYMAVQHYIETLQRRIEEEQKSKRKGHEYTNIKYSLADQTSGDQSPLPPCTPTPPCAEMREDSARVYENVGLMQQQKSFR

[25] = biological target: T4, Carboxy-terminal domain RNA polymerase II polypeptide A small phosphatase 1 (Homo sapiens, UniProt Q9GZU7); experiment: CTDSP1 inhibitors, concentration-response, biochemical, absorbance readout, ultra-high-throughput screen actives (AID 540297); format: functional
T4 sequence (Q9GZU7 whole entry): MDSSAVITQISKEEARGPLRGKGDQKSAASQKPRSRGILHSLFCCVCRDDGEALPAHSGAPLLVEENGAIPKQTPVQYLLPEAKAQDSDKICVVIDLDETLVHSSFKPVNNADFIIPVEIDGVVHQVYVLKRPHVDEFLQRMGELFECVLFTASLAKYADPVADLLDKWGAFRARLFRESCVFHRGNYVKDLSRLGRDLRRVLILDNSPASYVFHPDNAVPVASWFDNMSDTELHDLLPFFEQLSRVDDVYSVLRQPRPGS

[26] = biological target: T5, Tyrosine-protein phosphatase non-receptor type 5 (Homo sapiens, UniProt P54829); experiment: PTPN5 enzyme inhibition – biochemical, fluorescence intensity, uHTS hits, confirmation (AID 602372); format: functional; details: read-out: IC50_Mean
T5 sequence (P54829 whole entry): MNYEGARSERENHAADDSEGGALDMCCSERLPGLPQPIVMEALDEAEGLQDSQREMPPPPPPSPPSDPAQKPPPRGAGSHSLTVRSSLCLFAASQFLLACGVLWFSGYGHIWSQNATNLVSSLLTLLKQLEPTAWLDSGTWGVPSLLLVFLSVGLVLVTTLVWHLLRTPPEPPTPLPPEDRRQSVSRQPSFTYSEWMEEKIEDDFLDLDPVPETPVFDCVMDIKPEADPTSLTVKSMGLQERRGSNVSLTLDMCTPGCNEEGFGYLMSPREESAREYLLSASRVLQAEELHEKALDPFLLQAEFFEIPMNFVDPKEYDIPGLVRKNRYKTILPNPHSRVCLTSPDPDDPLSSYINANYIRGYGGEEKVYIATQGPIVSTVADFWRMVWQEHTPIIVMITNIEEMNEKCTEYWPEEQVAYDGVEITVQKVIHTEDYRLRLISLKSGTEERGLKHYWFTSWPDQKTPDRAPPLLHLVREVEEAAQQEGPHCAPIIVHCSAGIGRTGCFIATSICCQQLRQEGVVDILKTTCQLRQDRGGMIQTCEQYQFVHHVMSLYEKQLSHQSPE

[27] = biological target: Dual specificity protein phosphatase 3 (Homo sapiens, UniProt P51452); experiment: VHR phosphatase inhibition, dose response, selectivity assay for STEP inhibitor project, biochemical (AID 602374); format: functional; details: read-out: IC50_Mean
Dual specificity protein phosphatase 3, sequence (P51452 whole entry): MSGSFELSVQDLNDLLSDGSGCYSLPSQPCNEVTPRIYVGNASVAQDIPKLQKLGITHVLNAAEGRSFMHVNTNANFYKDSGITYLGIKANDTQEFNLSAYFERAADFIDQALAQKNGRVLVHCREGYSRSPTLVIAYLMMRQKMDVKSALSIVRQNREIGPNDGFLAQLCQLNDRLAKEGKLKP

[28] = tested on: Vero; experiment: viability of Vero cells under compound – cytotoxicity control for flavivirus capping enzyme inhibitors (AID 588742); format: functional; details: Chlorocebus sabaeus
[29] = biological target: Genome polyprotein (dengue virus type 2, UniProt P29990); experiment: flavivirus cap methylation enzyme inhibition – biochemical, confirmation dose response, primary screen (AID 588689); format: functional
Genome polyprotein, sequence (P29990 2492-3391 limits assumed): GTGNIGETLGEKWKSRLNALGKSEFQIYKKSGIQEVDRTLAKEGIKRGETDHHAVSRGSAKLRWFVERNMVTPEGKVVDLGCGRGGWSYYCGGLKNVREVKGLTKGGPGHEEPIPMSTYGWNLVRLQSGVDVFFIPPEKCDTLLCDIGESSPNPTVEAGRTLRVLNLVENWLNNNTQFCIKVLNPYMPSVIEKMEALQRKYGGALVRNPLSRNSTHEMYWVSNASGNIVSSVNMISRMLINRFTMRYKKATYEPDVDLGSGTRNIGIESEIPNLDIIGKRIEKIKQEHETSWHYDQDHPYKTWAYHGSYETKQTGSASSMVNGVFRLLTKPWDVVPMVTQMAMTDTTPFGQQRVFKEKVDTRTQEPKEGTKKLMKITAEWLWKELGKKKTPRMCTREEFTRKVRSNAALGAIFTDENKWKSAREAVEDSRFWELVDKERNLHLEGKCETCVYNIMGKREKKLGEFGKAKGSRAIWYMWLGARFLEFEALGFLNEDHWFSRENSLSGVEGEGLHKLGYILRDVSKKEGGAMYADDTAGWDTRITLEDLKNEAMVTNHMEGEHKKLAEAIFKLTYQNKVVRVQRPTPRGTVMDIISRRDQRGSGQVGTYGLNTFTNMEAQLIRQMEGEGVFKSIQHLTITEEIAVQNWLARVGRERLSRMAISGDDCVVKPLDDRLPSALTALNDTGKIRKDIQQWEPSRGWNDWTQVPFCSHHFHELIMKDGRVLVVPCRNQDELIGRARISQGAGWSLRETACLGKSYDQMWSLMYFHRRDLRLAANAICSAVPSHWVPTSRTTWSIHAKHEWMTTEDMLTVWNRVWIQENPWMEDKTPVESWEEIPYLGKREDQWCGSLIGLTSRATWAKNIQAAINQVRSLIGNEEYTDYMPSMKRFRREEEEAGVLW

[30] = biological target: Induced myeloid leukemia cell differentiation protein Mcl-1 (Homo sapiens, UniProt Q07820); format: functional
Induced myeloid leukemia cell differentiation protein Mcl-1, sequence (Q07820 whole entry): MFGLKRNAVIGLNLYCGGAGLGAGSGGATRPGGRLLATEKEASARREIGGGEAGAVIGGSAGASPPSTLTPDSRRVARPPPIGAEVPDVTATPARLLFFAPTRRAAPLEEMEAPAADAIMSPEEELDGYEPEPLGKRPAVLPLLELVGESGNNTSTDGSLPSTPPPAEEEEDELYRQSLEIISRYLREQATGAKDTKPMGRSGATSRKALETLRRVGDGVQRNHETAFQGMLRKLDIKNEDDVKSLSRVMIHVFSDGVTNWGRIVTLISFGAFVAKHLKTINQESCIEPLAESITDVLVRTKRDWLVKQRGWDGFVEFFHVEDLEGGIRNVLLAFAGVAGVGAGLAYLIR

[31] = biological target: Nonstructural protein 1 (Influenza A virus, UniProt Q194T2); format: functional, Influenza A virus (A/California/07/2009(H1N1))
Nonstructural protein 1, sequence (Q194T2 whole entry): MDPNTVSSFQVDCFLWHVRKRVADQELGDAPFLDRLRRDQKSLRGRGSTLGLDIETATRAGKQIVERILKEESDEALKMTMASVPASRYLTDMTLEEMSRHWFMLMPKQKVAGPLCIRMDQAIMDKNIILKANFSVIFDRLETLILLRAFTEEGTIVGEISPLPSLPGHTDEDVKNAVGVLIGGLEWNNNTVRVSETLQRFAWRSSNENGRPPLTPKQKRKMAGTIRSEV

[32] = tested on: H9c2; experiment: cells; format: functional, cell-based; details: Rattus norvegicus, H9c2, Myocardium;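 further: confirmatory concentration-response retest of ultra-high-throughput screening hits for modulation of myocardial damage; cell death induced by hydrogen peroxide oxidative stress; compound pretreatment for 60 min then peroxide exposure for 2 h; potency is for protecting the cells against peroxide damage rather than for killing them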

## CCc1cc(C(=O)N2CCc3c([nH]c4ccccc34)C2c2ccc(OC)cc2F)no1 (stereo not given)
[1]
  EC50: 28.3 µM (active)
[2]
  IC50: 1.74 µM (active)
[3]
  EC50: > 150 µM (inconclusive)
[4]
  CC50: 20 µM (active)
[5]
  EC50: > 150 µM (not active)
[6]
  CC50: 24.4 µM (active)
[7]
  EC50: > 150 µM (not active)

## COc1ccc(C)cc1NC(=O)NNC(=O)c1cc2ccccc2cc1O
[8]
  EC50: > 38 µM (not active)
[9]
  EC50: 22.7 µM (inconclusive)
[10]
  IC50: > 94.1 µM (inactive)

## COc1cc(CNCc2ccccn2)ccc1OCc1ccc(Cl)c(Cl)c1
[4]
  CC50: > 25 µM (active)
[11]
  AC50: 45.5 µM (active)

## CC(C)(C)c1cc(-c2nc(N)nc(N)n2)c(O)c(C(C)(C)C)c1
[12]
  AC50: 3.65 µM (active)
[13]
  CC50: 38.3 µM (active)
[14]
  IC50: > 20 µM (inactive)
[15]
  AC50: 28.9 µM (active)

## COc1ccc(N(C(=O)c2ccncc2)S(=O)(=O)c2ccccc2)cc1
[15]
  AC50: 1.77 µM (active)

## O=C(NC(=S)NNC(=O)c1cccs1)c1ccccc1
[16]
  EC50: 3.79 µM (active)
[10]
  IC50: > 94.1 µM (inactive)
[17]
  EC50: 21.2 µM (active)
[18]
  EC50: > 150 µM (not active)

## Cn1c(N=NO)nc2ccccc21
[19]
  EC50: < 6 µM (inconclusive)
[20]
  EC50: > 350 µM (not active)
[21]
  EC50: 0.778 µM (active)
[9]
  EC50: > 150 µM (inactive)
[22]
  EC50: 11.3 µM (active)
[23]
  AC50: 0.932 µM (active)

## COc1ccccc1OCc1cc(C(=O)N2CCN(C)C(c3ccccc3)C2)no1 (stereo not given)
[15]
  AC50: 4.78 µM (active)

## Cc1ccc(CS/C(Nc2ccccc2C)=C(\C#N)C(=O)NCc2ccco2)c(C)c1
[6]
  CC50: 15.2 µM (active)

## Cc1[nH]c2ccc(C(=O)N3CCN(c4cccc(Cl)c4)CC3)cc2c1C
[15]
  AC50: 7.72 µM (active)

## CCOc1ccc(/C=N/NC(=O)c2cc3c(OC)cccc3[nH]2)cc1
[24]
  IC50: 1.65 µM (active)
[25]
  IC50: 3.08 µM (active)
[26]
  IC50: 13.2 µM (active)
[27]
  IC50: 1.85 µM (active)

## O=[N+]([O-])c1cc(Cl)cc(/C=N/NC(=S)Nc2ccc(S(=O)(=O)N3CCOCC3)cc2)c1O
[28]
  CC50: 38.3 µM (active)
[8]
  EC50: > 38 µM (not active)
[9]
  EC50: > 160 µM (inactive)
[29]
  IC50: > 100 µM (active)
[10]
  IC50: > 94.1 µM (inactive)
[30]
  IC50: 3.47 µM (active)
[31]
  IC50: 3.52 µM (active)

## O=C(CSc1nnc(-c2ccccc2)n1Cc1ccccc1)NNC(=O)c1ccccc1O
[32]
  IC50: 33.7 µM (inactive)
[10]
  IC50: > 94.1 µM (inactive)

## Cc1c(/C=N/NC(N)=O)c2ccccn2c1C(=O)c1ccncc1
[20]
  EC50: > 350 µM (not active)
[22]
  EC50: > 350 µM (not active)
